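Growth conditions: 96-well plates. Treatment: test compound, 48 hours, 5 concentrations. Analysis: linear interpolation between bracketing concentrations; unreached endpoints set to highest concentration. The concentration for 50% growth inhibition is given as GI50. Definition used: TGI = concentration required for complete inhibition of growth.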
Assays:
Assay in all cases: growth of human tumour cells (NCI), 48 h
OVCAR-5 ovarian = test system: OVCAR-5 ovarian
CAKI-1 renal = test system: CAKI-1 renal
SK-MEL-28 melanoma = test system: SK-MEL-28 melanoma
SF-539 CNS = test system: SF-539 CNS
UACC-257 melanoma = test system: UACC-257 melanoma
DU-145 prostate = test system: DU-145 prostate
CCRF-CEM leukemia = test system: CCRF-CEM leukemia
HOP-62 NSCLC = test system: HOP-62 NSCLC
MDA-MB-231 breast = test system: MDA-MB-231 breast
NCI-H23 lung = test system: NCI-H23 lung
OVCAR-8 ovarian = test system: OVCAR-8 ovarian
RXF 393 renal = test system: RXF 393 renal
SF-295 CNS = test system: SF-295 CNS
HCC-2998 colon = test system: HCC-2998 colon
HCT-15 colon = test system: HCT-15 colon
HS 578T breast = test system: HS 578T breast
NCI/ADR-RES ovarian = test system: NCI/ADR-RES ovarian
HCT-116 colon = test system: HCT-116 colon
HOP-92 NSCLC = test system: HOP-92 NSCLC
SN12C renal = test system: SN12C renal
786-0 renal = test system: 786-0 renal
MDA-MB-435 = test system: MDA-MB-435
COLO 205 colon = test system: COLO 205 colon
K-562 leukemia = test system: K-562 leukemia
SF-268 CNS = test system: SF-268 CNS
SNB-19 CNS = test system: SNB-19 CNS
RPMI-8226 leukemia = test system: RPMI-8226 leukemia
IGROV1 ovarian = test system: IGROV1 ovarian
SNB-75 CNS = test system: SNB-75 CNS
SK-OV-3 ovarian = test system: SK-OV-3 ovarian
KM12 colon = test system: KM12 colon
TK-10 renal = test system: TK-10 renal
SW-620 colon = test system: SW-620 colon
MOLT-4 leukemia = test system: MOLT-4 leukemia
SR leukemia = test system: SR leukemia
LOX IMVI melanoma = test system: LOX IMVI melanoma
OVCAR-4 ovarian = test system: OVCAR-4 ovarian
MCF7 breast = test system: MCF7 breast
T-47D breast = test system: T-47D breast
NCI-H460 lung = test system: NCI-H460 lung
ACHN renal = test system: ACHN renal
M14 melanoma = test system: M14 melanoma
PC-3 prostate = test system: PC-3 prostate
A498 renal = test system: A498 renal
UACC-62 melanoma = test system: UACC-62 melanoma

SMILES: COc1ccc(C(=O)c2cc(OC)c(OC)c(OC)c2)cc1/C=C/C(=O)c1ccc(OC)c(OC)c1
- GI50 (OVCAR-5 ovarian): 3.67 µM
- TGI (OVCAR-5 ovarian): > 100 µM
- GI50 (CAKI-1 renal): 0.829 µM
- TGI (CAKI-1 renal): > 100 µM
- GI50 (SK-MEL-28 melanoma): 4.59 µM
- TGI (SK-MEL-28 melanoma): > 100 µM
- GI50 (SF-539 CNS): 3.08 µM
- TGI (SF-539 CNS): > 100 µM
- GI50 (UACC-257 melanoma): 3.19 µM
- TGI (UACC-257 melanoma): > 100 µM
- GI50 (DU-145 prostate): 2.21 µM
- TGI (DU-145 prostate): > 100 µM
- GI50 (CCRF-CEM leukemia): 0.465 µM
- TGI (CCRF-CEM leukemia): 13.3 µM
- GI50 (HOP-62 NSCLC): 34.1 µM
- TGI (HOP-62 NSCLC): > 100 µM
- GI50 (MDA-MB-231 breast): 0.659 µM
- TGI (MDA-MB-231 breast): > 100 µM
- GI50 (NCI-H23 lung): 4.13 µM
- TGI (NCI-H23 lung): > 100 µM
- GI50 (OVCAR-8 ovarian): 1.85 µM
- TGI (OVCAR-8 ovarian): > 100 µM
- GI50 (RXF 393 renal): > 100 µM
- TGI (RXF 393 renal): > 100 µM
- GI50 (SF-295 CNS): 5.26 µM
- TGI (SF-295 CNS): > 100 µM
- GI50 (HCC-2998 colon): 4.14 µM
- TGI (HCC-2998 colon): > 100 µM
- GI50 (HCT-15 colon): 0.428 µM
- TGI (HCT-15 colon): > 100 µM
- GI50 (HS 578T breast): 11.1 µM
- TGI (HS 578T breast): > 100 µM
- GI50 (NCI/ADR-RES ovarian): 0.466 µM
- TGI (NCI/ADR-RES ovarian): > 100 µM
- GI50 (HCT-116 colon): 0.416 µM
- TGI (HCT-116 colon): > 100 µM
- GI50 (HOP-92 NSCLC): 1.69 µM
- TGI (HOP-92 NSCLC): 58 µM
- GI50 (SN12C renal): 1.65 µM
- TGI (SN12C renal): > 100 µM
- GI50 (786-0 renal): 4.71 µM
- TGI (786-0 renal): > 100 µM
- GI50 (MDA-MB-435): 2.29 µM
- TGI (MDA-MB-435): > 100 µM
- GI50 (COLO 205 colon): 3.07 µM
- TGI (COLO 205 colon): > 100 µM
- GI50 (K-562 leukemia): 0.4 µM
- TGI (K-562 leukemia): > 100 µM
- GI50 (SF-268 CNS): 3 µM
- TGI (SF-268 CNS): > 100 µM
- GI50 (SNB-19 CNS): 2.7 µM
- TGI (SNB-19 CNS): > 100 µM
- GI50 (RPMI-8226 leukemia): 0.587 µM
- TGI (RPMI-8226 leukemia): 11.8 µM
- GI50 (IGROV1 ovarian): 3.08 µM
- TGI (IGROV1 ovarian): > 100 µM
- GI50 (SNB-75 CNS): 3.86 µM
- TGI (SNB-75 CNS): > 100 µM
- GI50 (SK-OV-3 ovarian): 5.76 µM
- TGI (SK-OV-3 ovarian): > 100 µM
- GI50 (KM12 colon): 1.42 µM
- TGI (KM12 colon): > 100 µM
- GI50 (TK-10 renal): 4.16 µM
- TGI (TK-10 renal): > 100 µM
- GI50 (SW-620 colon): 0.321 µM
- TGI (SW-620 colon): > 100 µM
- GI50 (MOLT-4 leukemia): 0.669 µM
- TGI (MOLT-4 leukemia): 17.4 µM
- GI50 (SR leukemia): 0.29 µM
- TGI (SR leukemia): 10.2 µM
- GI50 (LOX IMVI melanoma): 0.559 µM
- TGI (LOX IMVI melanoma): 4.75 µM
- GI50 (OVCAR-4 ovarian): 1.95 µM
- TGI (OVCAR-4 ovarian): > 100 µM
- GI50 (MCF7 breast): 0.418 µM
- TGI (MCF7 breast): > 100 µM
- GI50 (T-47D breast): 2.76 µM
- TGI (T-47D breast): > 100 µM
- GI50 (NCI-H460 lung): 2.43 µM
- TGI (NCI-H460 lung): > 100 µM
- GI50 (ACHN renal): 1.32 µM
- TGI (ACHN renal): > 100 µM
- GI50 (M14 melanoma): 2.79 µM
- TGI (M14 melanoma): > 100 µM
- GI50 (PC-3 prostate): 5.9 µM
- TGI (PC-3 prostate): > 100 µM

SMILES: CCCCCCCCCCCCC[C@H](O)C[C@H](O)[C@H](C)N
- GI50 (OVCAR-5 ovarian): 1.95 µM
- TGI (OVCAR-5 ovarian): 3.42 µM
- GI50 (OVCAR-8 ovarian): 3.49 µM
- TGI (OVCAR-8 ovarian): > 100 µM
- GI50 (HCT-15 colon): 1.65 µM
- TGI (HCT-15 colon): 3.11 µM
- GI50 (A498 renal): 6.19 µM
- TGI (A498 renal): 47.1 µM
- GI50 (SN12C renal): 1.92 µM
- TGI (SN12C renal): 3.38 µM
- GI50 (SK-OV-3 ovarian): 14.6 µM
- TGI (SK-OV-3 ovarian): 40.9 µM
- GI50 (UACC-62 melanoma): 1.87 µM
- TGI (UACC-62 melanoma): 3.27 µM
- GI50 (OVCAR-4 ovarian): 2.25 µM
- TGI (OVCAR-4 ovarian): 5.52 µM
- GI50 (NCI-H460 lung): 1.63 µM
- TGI (NCI-H460 lung): 3.87 µM
- GI50 (ACHN renal): 1.86 µM
- TGI (ACHN renal): 3.3 µM
